Data as given in PMC11475408, “All‐Inorganic Polyoxometalates Act as Superchaotropic Membrane Carriers” (Advanced Materials (Deerfield Beach, Fla.), 2023).
Where “and” joins values, the source holds several entries; their conditions need not be identical. Identical values can stand only once.

Tests used:
[1] = U-tube transport experiment through CHCl3; conditions: CHCl3 bulk phase; CF 100, POM 50, heptaArg 10 µM; 24 h; fluorescence
Source text: In the U‐tube experiments, the trans phase contained only buffer, and the cis phase is loaded with combinations of CF, carrier (POM), and cargo (heptaArg). Aliquots of the trans phase are taken and evaluated by fluorescence at different times. The trans phase is initially (t = 0) nonfluorescent, but the transport of CF from the cis phase through the chloroform barrier leads to fluorescence, signaling successful transport. […] This is consistent with translocation of a POM•heptaArg•CF complex through the organic phase, in support of the mechanism in Figure 1c.
The U‐tubes were house‐made, similar to those of Rebek^[ [82] ^] and Matile,^[ [54] ^] consisting in a small beaker with a central glass barrier, separating the two aqueous layers, cis ([…]) and trans (receiving phase), but allowing an interface chloroform layer below the cis and trans phases. 3 mL CHCl3 are placed into the U‐tube and 1 mL of the cis (combinations of carrier (POM), cargo (heptaArg) and CF in buffer) and trans (1 mL buffer) phases were added. The organic phase was stirred at 700 rpm at room temperature. Aliquots (25 µL) from the trans phase were taken at different times, 400 µL of buffer were added and measured by fluorescence.

[2] = Stability of POMs in nutrient mixture F-12 Ham by NMR; assay type: physicochemical
Protocol: To better mimic biological membranes, which contain negatively charged components and cholesterol, equivalent transport experiments were performed in anionic liposomes^[ [19], [20] ^] with the prototypal POM carriers, [PVW11]^4‒ and [SiMoW11]^4‒ . […] This encouraged us to transfer the experiments to CHO‐K1 (Chinese hamster ovary) cells, after we had confirmed sufficient stability of the most promising POM carriers, [PVW11]^4‒ and [SiMoW11]^4‒ , in the cellular nutrient mixture (F‐12 Ham's medium, Figures S26–S28C, Supporting Information).
Table S9. Results of stability investigation by NMR spectroscopy.
11 product, presumably [SiIVWVI12O40]4–) […]
product, presumably [SiIVWVI12O40]4–)
[AlW ]5‒ freshly prepared
[GeAlW ]5‒ freshly prepared […]
prepared ‒13.7; ‒14.7 intermediate anions
Stability of [PVW11]4‒ in 10 mM Mes buffer pH 5.5: 31P NMR studies were firstly performed on 3 mM solutions of [α-PVVVWVI11O40]4‒ in 10 mM Mes buffer pH 5.5 (Figure S25). The 31P NMR recorded immediately ([…]), one day (Figure S25B), and five days (Figure S25C) after solution preparation display the same signals that can be attributed to the intact [α-PVVVWVI11O40]4‒ (‒14.9 ppm) and the monolacunary [α-PVWVI11O40]7‒ (‒10.8 ppm) species formed upon partial hydrolysis. […]
Figure S24. 31P (A) and 51V (B) NMR spectra of 3 mM solutions of [PVW11]4‒ recorded in D2O. […]

Row | % parent anion, F-12 Ham after 1 h at 37 °C (183W NMR) ([2]; 10 mM POM, F-12 Ham (final pH 5.7), 183W NMR signal intensities) | % parent anion, nutrient mixture F-12 Ham freshly prepared ([2]; 3 mM POM, F-12 Ham pH 7.4, 31P NMR integration) | Substance | Carrier behaviour in U-tube (CF in trans phase) [1]
1 | 50% and ~ 50% |  | K4[α‐Si^IVMo^VIW^VI 11O40]·24H2O [[SiMoW11]^4‒] | act as “real” carriers
2 |  | 43% | K4[α‐P^VV^VW^VI 11O40]·4H2O [[PVW11]^4‒] | act as “real” carriers
